In PubChem BioAssay (NCI):
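Interpolation was linear, between the two tested concentrations surrounding the appropriate level; five concentrations were tested over 48 hours in 96-well plates. Abbreviation: GI50, concentration required for 50% inhibition of growth. Definition used: TGI = concentration required for complete inhibition of growth.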

What was measured:
Test in all cases: NCI tumour cell line growth inhibition, 48 h
SF-295 CNS = tested on: SF-295 CNS
RPMI-8226 leukemia = tested on: RPMI-8226 leukemia
IGROV1 ovarian = tested on: IGROV1 ovarian
UACC-62 melanoma = tested on: UACC-62 melanoma
HCT-116 colon = tested on: HCT-116 colon
HS 578T breast = tested on: HS 578T breast
SF-539 CNS = tested on: SF-539 CNS
UO-31 renal = tested on: UO-31 renal
NCI-H522 lung = tested on: NCI-H522 lung
UACC-257 melanoma = tested on: UACC-257 melanoma

| Compound | GI50 (SF-295 CNS) | TGI (SF-295 CNS) | GI50 (RPMI-8226 leukemia) | TGI (RPMI-8226 leukemia) | GI50 (IGROV1 ovarian) | TGI (IGROV1 ovarian) | GI50 (UACC-62 melanoma) | TGI (UACC-62 melanoma) | GI50 (HCT-116 colon) | TGI (HCT-116 colon) | GI50 (HS 578T breast) | TGI (HS 578T breast) | GI50 (SF-539 CNS) | TGI (SF-539 CNS) | GI50 (UO-31 renal) | TGI (UO-31 renal) | GI50 (NCI-H522 lung) | TGI (NCI-H522 lung) | GI50 (UACC-257 melanoma) | TGI (UACC-257 melanoma) |
| --- | --- | --- | --- | --- | --- | --- | --- | --- | --- | --- | --- | --- | --- | --- | --- | --- | --- | --- | --- | --- |
| C=C1CC[C@@H]2[C@](C)(COC(C)=O)[C@H](OC(C)=O)CC[C@@]2(C)[C@@H]1CC(Nc1ccc(S(=O)(=O)Nc2nccc(C)n2)cc1)C1=CCOC1=O (some centres undefined) | 12.4 µM | 25.6 µM | 1.95 µM | 6.84 µM | 3.62 µM | 13.6 µM | 2.38 µM | 7.13 µM | 1.6 µM | 3.56 µM | 6.65 µM | 43 µM | 2.07 µM | 4.73 µM | 2.91 µM | 10.6 µM | 1.26 µM | 3.1 µM | 4.8 µM | 16.4 µM |
| CC(=O)OCC1OC(n2ccc(=O)[nH]c2=O)C(OC(C)=O)C1OC(C)=O (centres undefined) | > 100 µM | > 100 µM | > 100 µM | > 100 µM | > 100 µM | > 100 µM | > 100 µM | > 100 µM | > 100 µM | > 100 µM | > 100 µM | > 100 µM | > 100 µM | > 100 µM | > 100 µM | > 100 µM | > 100 µM | > 100 µM | > 100 µM | > 100 µM |
| CCc1cc(O)c(Cl)c(C)c1Cl | – | 42.5 µM | – | 42.3 µM | – | 33.8 µM | – | 35.1 µM | – | 31.5 µM | – | 67.7 µM | – | 34.8 µM | – | 33.2 µM | – | 37.6 µM | – | 35.6 µM |
| C[C@@H]1COCCN1c1cc(C2(S(C)(=N)=O)CC2)nc(-c2ccnc3[nH]ccc23)n1 (some centres undefined) | 1.66 µM | 19.8 µM | 5.73 µM | 36.1 µM | 3.63 µM | 63.1 µM | 2.01 µM | 11 µM | 4.05 µM | > 100 µM | 2.77 µM | 22.1 µM | 0.86 µM | 3.5 µM | 2.55 µM | 22.8 µM | 6.92 µM | 43.1 µM | 11.7 µM | 52.7 µM |
| CO/N=C(\C)c1ccc(Nc2cc(-c3ccccc3)nc3c(O)cccc23)cc1 | 12.7 µM | 27.9 µM | 15.8 µM | 37 µM | 13.5 µM | 45.2 µM | 14.6 µM | 28.8 µM | 22.2 µM | 52.7 µM | 18.2 µM | 46.1 µM | 17.6 µM | 32.1 µM | 19.6 µM | 42.5 µM | 20.6 µM | 62.1 µM | 15.9 µM | 32.3 µM |
| CC(=O)[O-].CC(=O)[O-].[NH2-].[Pt+2].c1ccc2cnccc2c1 | > 100 µM | > 100 µM | 27.7 µM | > 100 µM | 24.6 µM | > 100 µM | 30.3 µM | > 100 µM | 15.1 µM | 33.7 µM | 60.4 µM | > 100 µM | 4.83 µM | 43.8 µM | 22.9 µM | 97.5 µM | 12.4 µM | 24.9 µM | – | 6.49 µM |
| CC(CNC(Cc1ccccc1)c1ccccc1)NC(Cc1ccccc1)c1ccccc1 (centres undefined) | 1.52 µM | 3.27 µM | 2.23 µM | 4.88 µM | 2.76 µM | 10.5 µM | 1.8 µM | 3.8 µM | 1.37 µM | 2.86 µM | 2.64 µM | 8.27 µM | 1.93 µM | 3.69 µM | 1.87 µM | 6.06 µM | 1.63 µM | 3.5 µM | 2.67 µM | 6.9 µM |
| CC1OC2CC(=O)OC2C2=C1C(=O)c1c(O)c3c(c(O)c1C2=O)C1CC(O)C3(O)C(C)O1 (centres undefined) | 0.975 µM | 3.29 µM | 0.267 µM | 0.876 µM | 0.329 µM | 1.7 µM | 0.734 µM | 2.13 µM | 0.0452 µM | 0.252 µM | 0.429 µM | 2.92 µM | 0.458 µM | 1.37 µM | 0.3 µM | 1.53 µM | 0.195 µM | 0.447 µM | 0.212 µM | 0.525 µM |
| CN(C)c1ccc2cc(-c3ccccc3F)c(N)nc2c1 | 1.04 µM | 12.4 µM | 2.83 µM | 17.7 µM | 2.81 µM | 24.4 µM | 0.89 µM | 12 µM | 0.454 µM | 11 µM | 2.83 µM | 18.5 µM | 2.1 µM | 7.99 µM | 3.16 µM | 16.5 µM | 1.35 µM | 5.87 µM | 6.12 µM | 18.3 µM |
| CN(CCOc1ccc(C#N)cc1)CCOc1ccc(C#N)cc1 | 17.3 µM | > 100 µM | 7.39 µM | > 100 µM | 1.66 µM | 24.7 µM | > 100 µM | > 100 µM | 60.5 µM | > 100 µM | 13.8 µM | > 100 µM | > 100 µM | > 100 µM | 18.7 µM | > 100 µM | 4.98 µM | > 100 µM | 28.9 µM | > 100 µM |
| COc1ccc(-c2cn(-c3ccccc3)c(-c3ccccc3)n2)cc1OC | 3.5 µM | 17.1 µM | 1.31 µM | 3.59 µM | 2.72 µM | 9.3 µM | 10.4 µM | 22.6 µM | 2.84 µM | 11.9 µM | 5.68 µM | > 100 µM | 2.14 µM | 6.16 µM | 2.7 µM | 14.4 µM | 6.63 µM | 19.6 µM | 4.84 µM | 16.8 µM |
| CC[C@H](CC#N)OC(=O)N[C@@H](C)c1cccc(NC(=O)Nc2ccc(-c3cnco3)c(OC)c2)c1 | 0.0532 µM | 13 µM | 0.152 µM | 19.4 µM | 0.0514 µM | 24.2 µM | 0.141 µM | 24.5 µM | 0.026 µM | > 45.8 µM | 1.16 µM | > 51.6 µM | 0.0386 µM | 28 µM | 0.446 µM | 10.3 µM | 0.0731 µM | 15.1 µM | 0.0922 µM | 23.1 µM |
| Cc1ccc(C(O)c2cnc(C)n2Cc2ccccc2)cc1 (centres undefined) | – | > 100 µM | – | > 100 µM | – | > 100 µM | – | > 100 µM | – | > 100 µM | – | > 100 µM | – | > 100 µM | – | > 100 µM | – | > 100 µM | – | > 100 µM |
